Data taken from patent publication US9611275B2 (priority 2012, dated 2017).

Assay: Assay for determination of apparent permeability (Papp), bi-directional transport
Conditions: pig, LLC-PK1

Compound | Papp at 3 h, 1 μM [×10⁻⁶ cm/s]
C[C@H](O[C@H]([C@H]1O[C@@H]2SC(N(C)C)=N[C@@H]2[C@@H](O)[C@@H]1O)C(F)(F)F)c1ccccc1 [Example 47, (3aR,5S,6S,7R,7aR)-2-(dimethylamino)-5-((R)-2,2,2-trifluoro-1-((S)-1-phenylethoxy)ethyl)-5,6,7,7a-tetrahydro-3aH-pyrano[3,2-d]thiazole-6,7-diol] | 34
CCO[C@H]([C@H]1O[C@@H]2SC(N(C)C)=N[C@@H]2[C@@H](O)[C@@H]1O)C(F)(F)F [Example 23, (3aR,5S,6S,7R,7aR)-2-(dimethylamino)-5-((R)-1-ethoxy-2,2,2-trifluoroethyl)-5,6,7,7a-tetrahydro-3aH-pyrano[3,2-d]thiazole-6,7-diol] | 23.6
CNC1=N[C@@H]2[C@@H](O)[C@H](O)[C@@H]([C@@H](OCc3ccc(Oc4ccccc4)cc3)C(F)(F)F)O[C@@H]2S1 [Example 99, (3aR,5S,6S,7R,7aR)-2-(methylamino)-5-((R)-2,2,2-trifluoro-1-(4-phenoxybenzyloxy)ethyl)-5,6,7,7a-tetrahydro-3aH-pyrano[3,2-d]thiazole-6,7-diol] | 21.7
CN(C)C1=N[C@@H]2[C@@H](O)[C@H](O)[C@@H]([C@@H](OCc3cccc(C(F)(F)F)c3)C(F)(F)F)O[C@@H]2S1 [Example 67, (3aR,5S,6S,7R,7aR)-2-(dimethylamino)-5-((R)-2,2,2-trifluoro-1-(3-(trifluoromethyl)benzyloxy)ethyl)-5,6,7,7a-tetrahydro-3aH-pyrano[3,2-d]thiazole-6,7-diol] | 29.5
CN(C)C1=N[C@@H]2[C@@H](O)[C@H](O)[C@@H]([C@@H](OCCCCF)C(F)(F)F)O[C@@H]2S1 [Example 30, (3aR,5S,6S,7R,7aR)-2-(dimethylamino)-5-((R)-2,2,2-trifluoro-1-(4-fluorobutoxy)ethyl)-5,6,7,7a-tetrahydro-3aH-pyrano[3,2-d]thiazole-6,7-diol] | 30.8
CO[C@H]([C@H]1O[C@@H]2SC(N(C)C)=N[C@@H]2[C@@H](O)[C@@H]1O)C(F)(F)F [Example 2, (3aR,5S,6S,7R,7aR)-2-(dimethylamino)-5-((R)-2,2,2-trifluoro-1-methoxyethyl)-5,6,7,7a-tetrahydro-3aH-pyrano[3,2-d]thiazole-6,7-diol] | 20.8
CCN(C)C1=N[C@@H]2[C@@H](O)[C@H](O)[C@@H]([C@H](OC)C(F)(F)F)O[C@@H]2S1 [Example 72, (3aR,5S,6S,7R,7aR)-2-(ethyl(methyl)amino)-5-((S)-2,2,2-trifluoro-1-methoxyethyl)-5,6,7,7a-tetrahydro-3aH-pyrano[3,2-d]thiazole-6,7-diol] | 25.4
CN(C)C1=N[C@@H]2[C@@H](O)[C@H](O)[C@@H]([C@@H](OCCCc3ccc(F)cc3)C(F)(F)F)O[C@@H]2S1 [Example 36, (3aR,5S,6S,7R,7aR)-2-(dimethylamino)-5-((R)-2,2,2-trifluoro-1-(3-(4-fluorophenyl)propoxy)ethyl)-5,6,7,7a-tetrahydro-3aH-pyrano[3,2-d]thiazole-6,7-diol] | 28.1
CN(C)C1=N[C@@H]2[C@@H](O)[C@H](O)[C@@H]([C@H](OCc3cccc(F)c3)C(F)(F)F)O[C@@H]2S1 [Example 63, (3aR,5S,6S,7R,7aR)-2-(dimethylamino)-5-((S)-2,2,2-trifluoro-1-(3-fluorobenzyloxy)ethyl)-5,6,7,7a-tetrahydro-3aH-pyrano[3,2-d]thiazole-6,7-diol] | 31.2
CNC1=N[C@@H]2[C@@H](O)[C@H](O)[C@@H]([C@@H](OCc3ccccc3C(F)(F)F)C(F)(F)F)O[C@@H]2S1 [Example 93, (3aR,5S,6S,7R,7aR)-2-(methylamino)-5-((R)-2,2,2-trifluoro-1-(2-(trifluoromethyl)benzyloxy)ethyl)-5,6,7,7a-tetrahydro-3aH-pyrano[3,2-d]thiazole-6,7-diol] | 29.2
CN(C)C1=N[C@@H]2[C@@H](O)[C@H](O)[C@@H]([C@@H](OCc3ccc(CF)cc3)C(F)(F)F)O[C@@H]2S1 [Example 69, (3aR,5S,6S,7R,7aR)-2-(dimethylamino)-5-((R)-2,2,2-trifluoro-1-(4-(fluoromethyl)benzyloxy)ethyl)-5,6,7,7a-tetrahydro-3aH-pyrano[3,2-d]thiazole-6,7-diol] | 31.1
CN[C@H]([C@H]1O[C@@H]2SC(N(C)C)=N[C@@H]2[C@@H](O)[C@@H]1O)C(F)(F)F [Example 16, (3aR,5R,6S,7R,7aR)-2-(dimethylamino)-5-((R)-2,2,2-trifluoro-1-(methylamino)ethyl)-5,6,7,7a-tetrahydro-3aH-pyrano[3,2-d]thiazole-6,7-diol] | 15.5
Cc1ccc(CO[C@H]([C@H]2O[C@@H]3SC(N(C)C)=N[C@@H]3[C@@H](O)[C@@H]2O)C(F)(F)F)cc1 [Example 40, (3aR,5S,6S,7R,7aR)-2-(dimethylamino)-5-((R)-2,2,2-trifluoro-1-(4-methylbenzyloxy)ethy1)-5,6,7,7a-tetrahydro-3aH-pyrano[3,2-d]thiazole-6,7-diol] | 31.2
COc1ccccc1CO[C@@H]([C@H]1O[C@@H]2SC(N(C)C)=N[C@@H]2[C@@H](O)[C@@H]1O)C(F)(F)F [Example 49, (3aR,5S,6S,7R,7aR)-2-(dimethylamino)-5-((S)-2,2,2-trifluoro-1-(2-mcthoxybenzyloxy)ethyl)-5,6,7,7a-tetrahydro-3aH-pyrano[3,2-d]thiazole-6,7-diol] | 29.8
CCN(C)C1=N[C@@H]2[C@@H](O)[C@H](O)[C@@H]([C@@H](OC)C(F)(F)F)O[C@@H]2S1 [Example 73, (3aR,5S,6S,7R,7aR)-2-(ethyl(methyl)amino)-5-((R)-2,2,2-trifluoro-1-methoxyethyl)-5,6,7,7a-tetrahydro-3aH-pyrano[3,2-d]thiazole-6,7-diol] | 19.9
COc1ccc(CO[C@H]([C@H]2O[C@@H]3SC(N(C)C)=N[C@@H]3[C@@H](O)[C@@H]2O)C(F)(F)F)cc1C [Example 54, (3aR,5S,6S,7R,7aR)-2-(dimethylamino)-5-((R)-2,2,2-trifluoro-1-(4-methoxy-3-methylbenzyloxy)ethyl)-5,6,7,7a-tetrahydro-3aH-pyrano[3,2-d]thiazole-6,7-diol] | 31.3
CCc1ccc(CO[C@H]([C@H]2O[C@@H]3SC(N(C)C)=N[C@@H]3[C@@H](O)[C@@H]2O)C(F)(F)F)cc1 [Example 41, (3aR,5S,6S,7R,7aR)-2-(dimethylamino)-5-((R)-1-(4-ethylbenzyloxy)-2,2,2-trifluoroethyl)-5,6,7,7a-tetrahydro-3aH-pyrano[3,2-d]thiazole-6,7-diol] | 30.7
CCc1ccc(CO[C@H]([C@H]2O[C@@H]3SC(NC)=N[C@@H]3[C@@H](O)[C@@H]2O)C(F)(F)F)cc1 [Example 86, (3aR,5S,6S,7R,7aR)-5-((R)-1-(4-ethylbenzyloxy)-2,2,2-trifluoroethyl)-2-(methylamino)-5,6,7,7a-tetrahydro-3aH-pyrano[3,2-d]thiazole-6,7-diol] | 29.9
CO[C@@](C)([C@H]1O[C@@H]2SC(N(C)C)=N[C@@H]2[C@@H](O)[C@@H]1O)C(F)(F)F (single isomer, unassigned) [Example 74] | 24.5
CNC1=N[C@@H]2[C@@H](O)[C@H](O)[C@@H]([C@@H](OCc3ccc(OC)c(C(F)(F)F)c3)C(F)(F)F)O[C@@H]2S1 [Example 98, (3aR,5S,6S,7R,7aR)-2-(methylamino)-5-((R)-2,2,2-trifluoro-1-(4-methoxy-3-(trifluoromethyl)benzyloxy)ethyl)-5,6,7,7a-tetrahydro-3aH-pyrano[3,2-d]thiazole-6,7-diol] | 29.1
CNC1=N[C@@H]2[C@@H](O)[C@H](O)[C@@H]([C@@H](OCc3cc(C)c(OC)c(C)c3)C(F)(F)F)O[C@@H]2S1 [Example 101, (3aR,5S,6S,7R,7aR)-2-(methylamino)-5-((R)-2,2,2-trifluoro-1-(4-methoxy-3,5-dimethylbenzyloxy)ethyl)-5,6,7,7a-tetrahydro-3aH-pyrano[3,2-d]thiazole-6,7-diol] | 28.9
CCc1cc(CO[C@H]([C@H]2O[C@@H]3SC(NC)=N[C@@H]3[C@@H](O)[C@@H]2O)C(F)(F)F)ccc1OC [Example 100, (3aR,5S,6S,7R,7aR)-5-((R)-1-(3-ethyl-4-methoxybenzyloxy)-2,2,2-trifluoroethyl)-2-(methylamino)-5,6,7,7a-tetrahydro-3aH-pyrano[3,2-d]thiazole-6,7-diol] | 28.1
COc1c(C)cc(CO[C@H]([C@H]2O[C@@H]3SC(N(C)C)=N[C@@H]3[C@@H](O)[C@@H]2O)C(F)(F)F)cc1C [Example 60, (3aR,5S,6S,7R,7aR)-2-(dimethylamino)-5-((R)-2,2,2-trifluoro-1-(4-methoxy-3,5-dimethylbenzyloxy)ethyl)-5,6,7,7a-tetrahydro-3aH-pyrano[3,2-d]thiazole-6,7-diol] | 29
CN(C)C1=N[C@@H]2[C@@H](O)[C@H](O)[C@@H]([C@@H](Oc3ccc([N+](=O)[O-])cc3)C(F)(F)F)O[C@@H]2S1 [Example 9, (3aR,5S,6S,7R,7aR)-2-(dimethylamino)-5-((R)-2,2,2-trifluoro-1-(4-nitrophenoxy)ethyl)-5,6,7,7a-tetrahydro-3aH-pyrano[3,2-d]thiazole-6,7-diol] | 31.5
CNC1=N[C@@H]2[C@@H](O)[C@H](O)[C@@H]([C@@H](OCCC3CCCCC3)C(F)(F)F)O[C@@H]2S1 [Example 80, (3aR,5S,6S,7R,7aR)-5-((R)-1-(2-cyclohexylethoxy)-2,2,2-trifluoroethyl)-2-(methylamino)-5,6,7,7a-tetrahydro-3aH-pyrano[3,2-d]thiazole-6,7-diol] | 28.5
CNC1=N[C@@H]2[C@@H](O)[C@H](O)[C@@H]([C@@H](OCc3ccc(OC)cc3)C(F)(F)F)O[C@@H]2S1 [Example 97, 2-(methylamino)-5-(2,2,2-trifluoro-1-(4-methoxybenzyloxy)ethyl)-5,6,7,7a-tetrahydro-3aH-pyrano[3,2-d]thiazole-6,7-diol] | 24.7
CNC1=N[C@@H]2[C@@H](O)[C@H](O)[C@@H]([C@@H](Oc3ccccc3)C(F)(F)F)O[C@@H]2S1 [Example 4, (3aR,5S,6S,7R,7aR)-2-(methylamino)-5-((R)-2,2,2-trifluoro-1-phenoxyethyl)-5,6,7,7a-tetrahydro-3aH-pyrano[3,2-d]thiazole-6,7-diol] | 27.3
